Experimental data: BigSolDB 2.1

C[C@@H]1OC(=O)[C@H](C)OC1=O
Conditions | solubility (mole fraction)
in acetone, 278.95 K | 0.217
in acetone, 286.95 K | 0.247
in acetone, 290.65 K | 0.265
in acetone, 294.65 K | 0.283
in acetone, 299.35 K | 0.307
in acetone, 304.95 K | 0.335
in acetone, 309.15 K | 0.36
in acetone, 314.35 K | 0.394
in acetone, 319.05 K | 0.423
in acetone, 323.35 K | 0.455
in acetone, 328.25 K | 0.49
in ethanol, 283.95 K | 0.00281
in ethanol, 288.65 K | 0.00423
in ethanol, 295.35 K | 0.00878
in ethanol, 299.95 K | 0.0135
in ethanol, 303.45 K | 0.031
in ethanol, 310.15 K | 0.044
in ethanol, 314.65 K | 0.0569
in ethanol, 319.95 K | 0.081
in ethanol, 325.15 K | 0.115
in ethanol, 329.25 K | 0.161
in ethanol, 333.25 K | 0.258
in ethanol, 336.45 K | 0.337
in ethyl acetate, 277.05 K | 0.115
in ethyl acetate, 282.35 K | 0.131
in ethyl acetate, 287.65 K | 0.147
in ethyl acetate, 296.15 K | 0.178
in ethyl acetate, 301.65 K | 0.199
in ethyl acetate, 305.15 K | 0.221
in ethyl acetate, 308.35 K | 0.242
in ethyl acetate, 313.15 K | 0.272
in ethyl acetate, 318.25 K | 0.311
in ethyl acetate, 324.95 K | 0.369
in ethyl acetate, 331.35 K | 0.436
in ethyl acetate, 336.35 K | 0.491
in isopropanol, 279.65 K | 0.00822
in isopropanol, 290.95 K | 0.0131
in isopropanol, 295.65 K | 0.017
in isopropanol, 299.95 K | 0.0208
in isopropanol, 304.15 K | 0.0256
in isopropanol, 309.35 K | 0.0338
in isopropanol, 314.15 K | 0.0455
in isopropanol, 318.65 K | 0.0605
in isopropanol, 323.65 K | 0.0854
in isopropanol, 329.15 K | 0.127
in isopropanol, 333.15 K | 0.177
in methanol, 278.25 K | 0.0153
in methanol, 282.15 K | 0.0221
in methanol, 284.15 K | 0.0231
in methanol, 290.25 K | 0.0302
in methanol, 294.25 K | 0.0373
in methanol, 298.85 K | 0.0474
in methanol, 302.25 K | 0.0614
in methanol, 308.15 K | 0.0895
in methanol, 311.45 K | 0.116
in methanol, 315.75 K | 0.126
in methanol, 322.25 K | 0.204
in methanol, 332.55 K | 0.282
in methanol, 333.15 K | 0.337
in toluene, 278.55 K | 0.0128
in toluene, 283.65 K | 0.0211
in toluene, 286.95 K | 0.0231
in toluene, 291.15 K | 0.029
in toluene, 298.35 K | 0.0371
in toluene, 303.15 K | 0.0436
in toluene, 308.15 K | 0.0666
in toluene, 315.95 K | 0.0854
in toluene, 321.65 K | 0.108
in toluene, 324.25 K | 0.135
in toluene, 326.95 K | 0.157
